Results reported in US8431565B2 (priority 2007, dated 2013).

Target: human CB1 receptor (hCB1) (Homo sapiens, UniProt P21554)
Assay type: cell-based

Chain of human CB1 receptor (hCB1) (P21554 whole entry): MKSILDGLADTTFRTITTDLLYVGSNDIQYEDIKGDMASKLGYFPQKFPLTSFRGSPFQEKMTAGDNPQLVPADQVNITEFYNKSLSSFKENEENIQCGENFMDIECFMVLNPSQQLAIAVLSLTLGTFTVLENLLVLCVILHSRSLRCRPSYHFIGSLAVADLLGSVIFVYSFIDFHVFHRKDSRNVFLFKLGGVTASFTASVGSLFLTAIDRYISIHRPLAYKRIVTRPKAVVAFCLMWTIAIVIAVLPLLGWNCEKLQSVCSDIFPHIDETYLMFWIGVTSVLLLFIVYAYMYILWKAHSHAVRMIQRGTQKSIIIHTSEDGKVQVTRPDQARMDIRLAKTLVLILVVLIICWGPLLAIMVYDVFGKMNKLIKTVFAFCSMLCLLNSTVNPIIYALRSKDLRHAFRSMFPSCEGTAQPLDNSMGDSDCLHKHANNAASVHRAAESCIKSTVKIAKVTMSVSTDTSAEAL

| SMILES | EC50 [µM] |
| --- | --- |
| CC(=O)NC[C@@H](NC(=O)c1nc(-c2cc(Cl)ccc2F)n2c1CN(C)CCC2)C(C)(C)C [Compound 770, (S)-N-(1-acetamido-3,3-dimethylbutan-2-yl)-3-(5-chloro-2-fluorophenyl)-8-methyl-6,7,8,9-tetrahydro-5H-imidazo[1,5-a][1,4]diazepine-1-carboxamide] | > 10 |
| CNC(=O)[C@@H](NC(=O)c1nc(-c2ccccc2C)n2c1CN(C)CCC2)C(C)(C)C [Compound 647, (S)-N-(3,3-dimethyl-1-(methylamino)-1-oxobutan-2-yl)-8-methyl-3-o-tolyl-6,7,8,9-tetrahydro-5H-imidazo[1,5-a][1,4]diazepine-1-carboxamide] | > 10 |
| CN1CCCn2c(-c3cc(Cl)c(F)cc3F)nc(C(=O)NC3(C(=O)N4CC(F)(F)C4)CC3)c2C1 [Compound 873, 3-(5-chloro-2,4-difluorophenyl)-N-(1-(3,3-difluoroazetidine-1-carbonyl)cyclopropyl)-8-methyl-6,7,8,9-tetrahydro-5H-imidazo[1,5-a][1,4]diazepine-1-carboxamide] | > 10 |
| CNC(=O)[C@@H](NC(=O)c1nc(-c2ccc(C(F)(F)F)cc2C)n2c1CN(C)CCC2)C(C)(C)C [Compound 632, (S)-N-(3,3-dimethyl-1-(methylamino)-1-oxobutan-2-yl)-8-methyl-3-(2-methyl-4-(trifluoromethyl)phenyl)-6,7,8,9-tetrahydro-5H-imidazo[1,5-a][1,4]diazepine-1-carboxamide] | > 10 |
| CN1CCCn2c(-c3cc(Cl)c(F)cc3F)nc(C(=O)N3CC[C@H](O)C3)c2C1 [Compound 910, (S)-(3-(5-chloro-2,4-difluorophenyl)-8-methyl-6,7,8,9-tetrahydro-5H-imidazo[1,5-a][1,4]diazepin-1-yl)(3-hydroxypyrrolidin-1-yl)methanone] | > 10 |
| CNC(=O)[C@@H](NC(=O)c1nc(C2CCN(C(=O)c3ccccc3)CC2)n2c1CN(C)CCC2)C(C)(C)C [Compound 726, (S)-3-(1-benzoylpiperidin-4-yl)-N-(3,3-dimethyl-1-(methylamino)-1-oxobutan-2-yl)-8-methyl-6,7,8,9-tetrahydro-5H-imidazo[1,5-a][1,4]diazepine-1-carboxamide] | > 10 |
| CN1CCCn2c(-c3cc(F)c(F)cc3F)nc(C(=O)N3CCCCC3CN3CCOCC3)c2C1 (stereo not drawn) [Compound 789, (8-methyl-3-(2,4,5-trifluorophenyl)-6,7,8,9-tetrahydro-5H-imidazo[1,5-a][1,4]diazepin-1-yl)(2-(morpholinomethyl)piperidin-1-yl)methanone] | > 10 |
| CNC(=O)[C@@H](NC(=O)c1nc(-c2cnccc2Cl)n2c1CN(C)CCC2)C(C)(C)C [Compound 627, (S)-3-(4-chloropyridin-3-yl)-N-(3,3-dimethyl-1-(methylamino)-1-oxobutan-2-yl)-8-methyl-6,7,8,9-tetrahydro-5H-imidazo[1,5-a][1,4]diazepine-1-carboxamide] | > 10 |
| CNC(=O)[C@@H](NC(=O)c1nc(-c2ccc(OC(C)C)cc2)n2c1CN(C)CCC2)C(C)(C)C [Compound 649, (S)-N-(3,3-dimethyl-1-(methylamino)-1-oxobutan-2-yl)-3-(4-isopropoxyphenyl)-8-methyl-6,7,8,9-tetrahydro-5H-imidazo[1,5-a][1,4]diazepine-1-carboxamide] | > 10 |
| CN1CCCn2c(-c3cc(Cl)ccc3F)nc(C(=O)N[C@H](C(=O)N[C@H]3CCC[C@H]3O)C(C)(C)C)c2C1 [Compound 840, 3-(5-chloro-2-fluorophenyl)-N-((S)-1-((1S,2R)-2-hydroxycyclopentylamino)-3,3-dimethyl-1-oxobutan-2-yl)-8-methyl-6,7,8,9-tetrahydro-5H-imidazo[1,5-a][1,4]diazepine-1-carboxamide] | > 10 |
| CNC(=O)[C@@H](NC(=O)c1nc(-c2ccccc2N)n2c1CN(C)CCC2)C(C)(C)C [Compound 646, (S)-3-(2-aminophenyl)-N-(3,3-dimethyl-1-(methylamino)-1-oxobutan-2-yl)-8-methyl-6,7,8,9-tetrahydro-5H-imidazo[1,5-a][1,4]diazepine-1-carboxamide] | > 10 |
| COC(=O)C1CN(C(=O)c2nc(-c3cc(Cl)c(F)cc3F)n3c2CN(C)CCC3)CCC1=O (stereo not drawn) [Compound 826, methyl 1-(3-(5-chloro-2,4-difluorophenyl)-8-methyl-6,7,8,9-tetrabydro-5H-imidazo[1,5-a][1,4]diazepine-1-carbonyl)-4-oxopiperidine-3-carboxylate] | > 10 |
| CNC(=O)[C@@H](NC(=O)c1nc(-c2cc(F)c(F)cc2F)n2c1CN(c1cncc(Cl)n1)CCC2)C(C)(C)C [Compound 718, (S)-8-(6-chloropyrazin-2-yl)-N-(3,3-dimethyl-1-(methylamino)-1-oxobutan-2-yl)-3-(2,4,5-trifluorophenyl)-6,7,8,9-tetrahydro-5H-imidazo[1,5-a][1,4]diazepine-1-carboxamide] | > 10 |
| CN1CCCn2c(-c3cc(F)c(F)cc3F)nc(C(=O)N3CCOCC3)c2C1 [Compound 859, (8-methyl-3-(2,4,5-trifluorophenyl)-6,7,8,9-tetrahydro-5H-imidazo[1,5-a][1,4]diazepin-1-yl)(morpholino)methanone] | > 10 |
| CNC(=O)[C@@H](NC(=O)c1nc(C2CCN(C(=O)C(C)C)CC2)n2c1CN(C)CCC2)C(C)(C)C [Compound 728, (S)-N-(3,3-dimethyl-1-(methylamino)-1-oxobutan-2-yl)-3-(1-isobutyrylpiperidin-4-yl)-8-methyl-6,7,8,9-tetrahydro-5H-imidazo[1,5-a][1,4]diazepine-1-carboxamide] | > 10 |
| CNC(=O)[C@@H](NC(=O)c1nc(-c2cccc3c2OC(F)(F)O3)n2c1CN(C)CCC2)C(C)(C)C [Compound 682, (S)-3-(2,2-difluorobenzo[d][1,3]dioxol-4-yl)-N-(3,3-dimethyl-1-(methylamino)-1-oxobutan-2-yl)-8-methyl-6,7,8,9-tetrahydro-5H-imidazo[1,5-a][1,4]diazepine-1-carboxamide] | > 10 |
| CNC(=O)[C@@H](NC(=O)c1nc(-c2ccc(=O)n(C)c2)n2c1CN(C)CCC2)C(C)(C)C [Compound 708, (S)-N-(3,3-dimethyl-1-(methylamino)-1-oxobutan-2-yl)-8-methyl-3-(1-methyl-6-oxo-1,6-dihydropyridin-3-yl)-6,7,8,9-tetrahydro-5H-imidazo[1,5-a][1,4]diazepine-1-carboxamide] | > 10 |
| CNC(=O)[C@@H](NC(=O)c1nc(-c2ccnc(-c3ccnc(Cl)c3)c2)n2c1CN(C)CCC2)C(C)(C)C [Compound 625, (S)-3-(2′-chloro-2,4′-bipyridin-4-yl)-N-(3,3-dimethyl-1-(methylamino)-1-oxobutan-2-yl)-8-methyl-6,7,8,9-tetrahydro-5H-imidazo[1,5-a][1,4]diazepine-1-carboxamide] | > 10 |
| CNC(=O)[C@@H]1CCN(C(=O)c2nc(-c3cc(F)c(F)cc3F)n3c2CN(C)CCC3)C1 [Compound 758, (R)-N-methyl-1-(8-methyl-3-(2,4,5-trifluorophenyl)-6,7,8,9-tetrahydro-5H-imidazo[1,5-a][1,4]diazepine-1-carbonyl)pyrrolidine-3-carboxamide] | > 10 |
| CNC(=O)[C@@H](NC(=O)c1nc(-c2cc(F)c(F)cc2OC(C)C)n2c1CN(C)CCC2)C(C)(C)C [Compound 651, (S)-3-(4,5-difluoro-2-isopropoxyphenyl)-N-(3,3-dimethyl-1-(methylamino)-1-oxobutan-2-yl)-8-methyl-6,7,8,9-tetrahydro-5H-imidazo[1,5-a][1,4]diazepine-1-carboxamide] | > 10 |
| CN1CCCn2c(-c3cc(C(F)(F)F)ccc3F)nc(C(=O)N[C@H](C(=O)NCCF)C(C)(C)C)c2C1 [Compound 810, (S)-3-(2-fluoro-5-(trifluoromethyl)phenyl)-N-(1-(2-fluoroethylamino)-3,3-dimethyl-1-oxobutan-2-yl)-8-methyl-6,7,8,9-tetrahydro-5H-imidazo[1,5-a][1,4]diazepine-1-carboxamide] | > 10 |
| CNC(=O)[C@@H](NC(=O)c1nc(-c2cnn(-c3ccccc3)c2C)n2c1CN(C)CCC2)C(C)(C)C [Compound 709, (S)-N-(3,3-dimethyl-1-(methylamino)-1-oxobutan-2-yl)-8-methyl-3-(5-methyl-1-phenyl-1H-pyrazol-4-yl)-6,7,8,9-tetrahydro-5H-imidazo[1,5-a][1,4]diazepine-1-carboxamide] | > 10 |
| CN1CCCn2c(-c3cc(F)c(F)cc3F)nc(C(=O)NCC3CCOCC3)c2C1 [Compound 764, 8-methyl-N-((tetrahydro-2H-pyran-4-yl)methyl)-3-(2,4,5-trifluorophenyl)-6,7,8,9-tetrahydro-5H-imidazo[1,5-a][1,4]diazepine-1-carboxamide] | > 10 |
| CNC(=O)[C@@H](NC(=O)c1nc(C2=CCCCO2)n2c1CN(C)CCC2)C(C)(C)C [Compound 452, (S)-3-(3,4-dihydro-2H-pyran-6-yl)-N-(3,3-dimethyl-1-(methylamino)-1-oxobutan-2-yl)-8-methyl-6,7,8,9-tetrahydro-5H-imidazo[1,5-a][1,4]diazepine-1-carboxamide] | > 10 |
| CNC(=O)[C@@H](NC(=O)c1nc(C2CCN(S(=O)(=O)c3ccccc3)CC2)n2c1CN(C)CCC2)C(C)(C)C [Compound 727, (S)-N-(3,3-dimethyl-1-(methylamino)-1-oxobutan-2-yl)-8-methyl-3-(1-(phenylsulfonyl)piperidin-4-yl)-6,7,8,9-tetrahydro-5H-imidazo[1,5-a][1,4]diazepine-1-carboxamide] | > 10 |
| CNC(=O)C1(NC(=O)c2nc(-c3cc(F)c(F)cc3F)n3c2CN(C)CCC3)CCCC1 [Compound 719, 8-methyl-N-(1-(methylcarbamoyl)cyclopentyl)-3-(2,4,5-trifluorophenyl)-6,7,8,9-tetrahydro-5H-imidazo[1,5-a][1,4]diazepine-1-carboxamide] | > 10 |
| CN1CCCn2c(-c3cc(F)c(F)cc3F)nc(C(=O)N3CCC4(CCN(C)C4=O)CC3)c2C1 [Compound 788, 2-methyl-8-(8-methyl-3-(2,4,5-trifluorophenyl)-6,7,8,9-tetrahydro-5H-imidazo[1,5-a][1,4]diazepine-1-carbonyl)-2,8-diazaspiro[4.5]decan-1-one] | > 10 |
